Series [1] has as its system human lung tumour xenograft NCI-H1299 harbouring approximately 5% NfsA-positive cells. The series can be described thus: In vivo binding by immunohistochemistry in mixed NfsA/WT xenograft. Also on record: species or system NIH-III nude mice. The note with it: 60 mg/kg i.p., tumours excised after 60 minutes; ELK3-51-CY5 antibody. As for the experimental part:
FIG. 8 illustrates the in vivo binding of compounds 15, 93 and 67 in the human lung tumour xenograft NCI-H1299 harbouring approximately 5% NfsA-positive cells. […] Mixed NfsA/WT NCI-H1299 cells were inoculated subcutaneously onto the flank of NIH-III nude mice. When the mixed tumours reached approximately 500 mm^3, mice were dosed i.p. with 60 mg/kg of either compound 15, compound 93 or compound 67. After 60 minutes the tumours were excised, and fixed in formalin before being embedded in paraffin wax. Tumour section were cut (5 microns) and mounted onto glass slides for immunodetection of bound adducts of compound 15, compound 93 or compound 67 using the monoclonal antibody ELK3-51 directly conjugated to the fluorophore CY5 (Ex/Em 650/670 nm). Fluorescent microscopy was employed to visualise the presence of cellular adducts of each test compound present in individual tumour cells. Image gain was reduced due to intense fluorescent signal indicating extensive adduct binding. Images were acquired on a Zeiss LSM 710 confocal microscope (×20 magnification).

For series [2], the system named is HCT-116 cells stably expressing E. coli NfsA. Description: Flow cytometry of metabolism and cellular retention (EF5 antibody). The class given is cell-based, human. The note with it: 20 μM; for Metabolism and cellular retention by FACS, HCT-116 NfsA cells (FIG. 3): 2 hours, oxic conditions (21% O2, 5% CO2). As to the method: FIG. 3 illustrates the results of flow cytometry analysis of HCT-116 cells stably expressing E. coli NfsA relative to HCT-116 wild-type cells after in vitro exposure to 20 μM of compounds 15, 93 and 67 for 2 hours. 1×10^6 cells were incubated with test compounds under oxic conditions. Samples were fixed and stained with EF5 antibody Alexa 488 ELK3.51 at 100 μg/ml. Samples were then analysed on a Becton Dickinson FACscan flow cytometer.
FIG. 4 illustrates the results of a second independent flow cytometry analysis of compound 15 and 93 metabolism and binding in wild-type HCT-116 cells, HCT-116 cells stably over-expressing cytochrome P450 reductase (CYPOR), a human one-electron reductase known to metabolise nitroheterocyclic and nitroaromatic compounds, or HCT-116 cells stably expressing the bacterial nitroreductase E. coli NfsA. 1×10^6HCT-116 cells were seeded in 6 well plates underaerobic conditions (21% O2, 5% CO2). After 2 h incubation, drug free control (wild-type HCT-116, foreground), 20 μM (wild-type HCT-116, second plot), 100 μM (wild-type HCT-116, third plot), 20 μM (HCT-116-CYPOR, forth plot), 100 μM (HCT-116-CYPOR, fifth plot) or 20 μM (HCT-116-NfsA, sixth plot) of compound 15 or 93 was added. After 2 h incubation cells were harvested and fixed with paraformaldehyde before being incubated overnight with 100 μl of 75 μg/ml EF5 CY5 conjugated antibody. Samples were then analysed on a Becton Dickinson FACscan flow cytometer.

The target in the next series is T1, NfsB (E.c) (Escherichia coli, UniProt P38489).
T1 construct: made in house
The series can be described thus: Initial rate of metabolism by purified recombinant bacterial nitroreductase (NADPH consumption, UV/Vis). The class given is biochemical. The note with it: compound 500 μM, NADPH 200 μM, 10 mM Tris-Cl pH 7.0; μmol NADPH consumed per mg enzyme per minute. As for the experimental part:
(§1) The relative initial rates of reductive metabolism of the nitro moiety of test compounds by bacterial nitroreductase's can be measured experimentally by incubating the test compound at near-saturating concentration (determined empirically) with the purified recombinant bacterial nitroreductase enzymes in the presence of NADPH co-factor. UV/Vis spectroscopy is used to measure consumption of the co-factor, indicating metabolism of the test compound by the nitroreductase.
(§2) Compounds 67, 93 and 97 (500 μM) were added to NADPH (200 μM) in 10 mM Tris-Cl pH 7.0. Reactions were initiated by enzyme addition (between 5 and 20 μg per reaction). Rates represent μmol of NADPH consumed per mg enzyme added per minute.

Another series has as its system NfsB (E.s). The description is as above. The note with it: compound 500 μM, NADPH 200 μM, 10 mM Tris-Cl pH 7.0; μmol NADPH consumed per mg enzyme per minute. Format: biochemical, Enterobacter (Chronobacter) sakazakii. As for the experimental part:
as §1, §2

The test system of series [3] is human solid tumour xenograft HCT116 (WT). The series can be described thus: Hypoxia-dependent binding by immunofluorescent microscopy with pimonidazole co-staining. The class given is in vivo, NIH-III nude mice. The note with it: 60 mg/kg i.p., 60 minutes after 60 mg/kg pimonidazole; tumours excised after 120 minutes. As to the method:
FIG. 9 illustrates the absence of hypoxic dependent binding of compound 67 in the human solid tumour xenograft HCT116 relative to compound 15 whilst including hypoxia co-staining by pimonidazole (Hypoxyprobe™) as an internal reference (positive control). HCT116 WT tumours were inoculated subcutaneously onto the flank of NIH-Ill nude mice. When the mixed tumours reached approximately 500 mm^3, mice were dosed i.p. with 60 mg/kg of pimonidazole, and 60 minutes later dosed with either 60 mg/kg of compound 15 or 60 mg/kg of compound 67. After 120 minutes the tumours were excised, and fixed in formalin before being embedded in paraffin wax. Tumour section were cut (5 microns) and mounted onto glass slides for immunodetection of bound adducts of compounds. Immunofluorescent microscopy was performed using a monoclonal antibody (Mab1, hybridoma clone 4.3.11.3) conjugated to Alexa-488 (green) for the detection of pimonidazole adducts, and monoclonal antibody ELK3-51 directly conjugated to the fluorophore CY5 (Ex/Em 650/670 nm) for detection of adducts formed by compound 15 or compound 67. The overlap of pimonidazole with either one of these markers appears as yellow. Images were acquired on a Zeiss LSM 710 confocal microscope (×20 magnification).

Series [4] has as its system E. coli SOS (DNA damage repair) response. Description: SOS assay (β-galactosidase activity) in NTR over-expression library. The class given is cell-based, Escherichia coli. The note with it: 4 h challenge with 8 μM compound 67. As to the method:
FIG. 2 illustrates the metabolism of compound 67 by members of the 58-membered NTR over-expression library as measured by (A) Growth Inhibition assay and (B) SOS assay. (A) Growth Inhibition assay. Turbidity (OD600) of NTR over-expressing cell cultures was recorded directly before and after 4 h incubation with 400 μM compound 67. Percentage Growth Inhibition represents the decrease in OD600 of challenged cells relative to unchallenged control cells for each strain post-incubation (i.e. 100−[100×OD600 of challenged cells/OD600 of unchallenged cells]). Data are the average of 2 independent assays and the error bars indicate ±1 standard deviation. Labelled bars indicate the NfsA and NfsB family members within the NTR library. (B) SOS assay. […] The data presented is the SOS response, measured by β-galactosidase activity (in Miller units), of NTR over-expressing E. coli SOS-R2 after 4 h challenge with 8 μM compound 67. Full details of assay protocol and calculations are as described in G A Prosser, J N Copp, S P Syddall, E M Williams, J B Smaill, W R Wilson, A V Patterson and D F Ackerley. 2010. Discovery and evaluation of Escherichia coli nitroreductases that activate the anti-cancer prodrug CB1954. Biochemical Pharmacology 79: 678-687. Data are the average of 2 independent assays and the error bars indicate ±1 standard deviation. […]

One may read the melting point as the temperature, or range, at which the solid turns liquid.

T1 sequence (P38489 whole entry): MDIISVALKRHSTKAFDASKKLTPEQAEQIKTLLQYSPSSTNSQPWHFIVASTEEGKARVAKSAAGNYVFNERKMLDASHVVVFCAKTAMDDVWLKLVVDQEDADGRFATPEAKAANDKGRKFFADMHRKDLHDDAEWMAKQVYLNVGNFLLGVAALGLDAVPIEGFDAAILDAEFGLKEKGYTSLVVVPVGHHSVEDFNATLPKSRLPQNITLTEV

`O=C(Cn1cnc([N+](=O)[O-])c1)NCC(F)(F)C(F)(F)F` [Compound 93, 2-(4-nitro-1H-imidazol-1-yl)-N-(2,2,3,3,3-pentafluoropropyl)acetamide]: the “Detection of NfsA expressing cells after in vivo binding (FIG. 8)” value in series [1] is given as “readily detected by immunohistochemistry with single cell resolution”. Further, the “Metabolism and cellular retention by FACS, HCT-116 NfsA cells (FIG. 4)” value in series [2] (2 h, aerobic conditions) is on record as “excellent substrates for E. coli NfsA”. Also, the “Metabolism and cellular retention by FACS, HCT-116 NfsA cells (FIG. 3)” value in series [2] was “excellent substrates for E. coli NfsA”. The “Rate of metabolism by NfsB (E.c)” value at NfsB (E.c) stood at 0.82 µmol/min/mg.

Compound `Cc1ncc([N+](=O)[O-])n1CC(=O)NCC(F)(F)C(F)(F)F` [Compound 67, 2-(2-methyl-5-nitro-1H-imidazol-1-yl)-N-(2,2,3,3,3-pentafluoropropyl)acetamide] showed a melting point of 149 to 151 °C. Besides, in series [1], the “Detection of NfsA expressing cells after in vivo binding (FIG. 8)” value is recorded as “readily detected by immunohistochemistry with single cell resolution”. In addition, in the series on NfsB (E.s), the “Rate of metabolism by NfsB (E.s)” value is 2.4 µmol/min/mg. In addition, the “Metabolism and cellular retention by FACS, HCT-116 NfsA cells (FIG. 3)” value in series [2] was “excellent substrates for E. coli NfsA”. Moreover, the “Hypoxia-dependent binding in HCT116 WT tumours (FIG. 9)” value in series [3] is given as “not detected in the pimonidazole positive hypoxic regions of the tumour”. In addition, the “SOS response upon activation” value in series [4] is “demonstrates an ability to evoke the E. coli SOS (DNA damage repair) response upon activation”.

The values above are taken from US20150010474A1, “Compounds And Methods For Selective Imaging And/Or Ablation” (Auckland Uniservices Limited, priority 2011, published 2015).
